Results taken from US20240360289A1, “EPOXY RESIN FOAM, CARBON DIOXIDE ABSORBENT, METHOD FOR PRODUCING EPOXY RESIN FOAM, MULTILAYER STRUCTURE AND METHOD FOR PRODUCING SAME” (MITSUBISHI GAS CHEMICAL COMPANY, INC., priority 2021, published 2024).

Experiment: Maximum carbon dioxide release temperature of amine compound (DSC after CO2 absorption)
Type: physicochemical
Details: amine compound after 24 hours in air at 23° C. and 50% RH; DSC 23 to 250° C., 10° C./minute, nitrogen
Procedure: (Maximum Carbon Dioxide (CO2) Release Temperature of Amine Compound)
A carbon dioxide detector and a Petri dish were placed in an openable desiccator (inner dimension: 370 mm×260 mm×272 mm). Subsequently the amine compound (5 mmol) was added to the Petri dish in the desiccator and the door was immediately closed to leave the amine compound to stand in the desiccator in an air environment at 23° C. and 50% RH for 24 hours. The initial concentration of carbon dioxide was adjusted to about 400 ppm.
Then the amine compound was removed from the desiccator to give an amine compound with carbon dioxide absorbed. The maximum carbon dioxide release temperature of the amine compound with carbon dioxide absorbed was measured by subjecting the amine compound to DSC as described below. First, differential scanning calorimetry of the amine compound was performed under conditions of a temperature range of 23 to 250° C., a heating rate of 10° C./minute and a nitrogen atmosphere using a differential thermogravimeter (product name DTG-60 made by Shimadzu Corporation). The temperature at which the amount of heat absorbed due to the desorption of carbon dioxide was the maximum was calculated from the DSC curve obtained, and the temperature was determined as the maximum carbon dioxide release temperature of the amine compound.

Point of comparison: `NCC1CCCC(CN)C1` (centres unmarked) [1,3-BAC, 1,3-bis(aminomethyl)cyclohexane], “Maximum carbon dioxide release temperature” value 125.7 °C. Against it:
- NCCN1CCNCC1 [AEP, N-(2-aminoethyl) piperazine] — lower, 81.9 °C
- CC1(C)CC(N)CC(C)(CN)C1 (centres unmarked) [IPDA, isophoronediamine] — lower, 114.4 °C
- NCc1cccc(CN)c1 [MXDA, metaxylylenediamine] — higher, 135.5 °C
- NC1CCC(CC2CCC(N)CC2)CC1 (centres unmarked) [PACM, 4,4′-methylenebis(cyclohexylamine), reference compound] — lower, 53 °C
